Laboratory results taken from publication PMC2673211, “Nitric oxide activates ATP-sensitive potassium channels in mammalian sensory neurons: action by direct S-nitrosylation” (Molecular Pain, 2009).

What was measured:
[1] = target: T1, wild-type SUR1/Kir6.2 channels (Rattus norvegicus, UniProt P70673+Q09429); assay: Inside-out patch recording of recombinant wild-type channels expressed in COS7 cells; type: biochemical
T1 construct: A full-length Kir cDNA and a full-length SUR cDNA were subcloned into the mammalian expression vector; expressed in transfected cells; host or cells: COS7 cells (KATP channel-deficient), pcDNA3.1(-) vectors, GFP cDNA co-transfected as a separate reporter
Description: (§1) KATP channel-deficient COS7 cells were plated at a density of 3 × 10^5/dish (35 mm in diameter) and cultured in Dulbecco's modified Eagle's medium supplemented with 10% fetal calf serum. Rat Kir6.2 (GenBank X97041) and rat SUR1 (GenBank X97279) cDNAs were used for expression study. A truncated form of Kir6.2 lacking the last 36 amino acids at the C-terminus was obtained by polymerase chain reaction amplification. Polymerase chain reaction products were cloned into the pCR3.1 vector by using the TA cloning system (Invitrogen Corp., Carlsbad, CA, USA) and then cloned into the pcDNA3.1 (-) vector (Invitrogen Corp.) for mammalian expression. Point mutation of cysteine at position 717 (C717), C806, C1378, C1446, and C1491 within SUR1 to serine (C717S, C806S, C1378S, C1446S, and C1491S) was performed by using the Site-Directed Mutagenesis system (Invitrogen Corp.). All cDNA products were sequenced by using the BigDye terminator cycle sequencing kit and an ABI PRISM 377 DNA sequencer (Applied Biosystems, Foster City, CA) to confirm the sequence. A full-length Kir cDNA and a full-length SUR cDNA were subcloned into the mammalian expression vector pcDNA3.1 (-). For electrophysiological recordings, either wild-type or mutated pcDNA3.1 (-) Kir6.2 alone (1 μg), or pcDNA3.1 (-) Kir6.2 (1 μg) plus pcDNA3.1 (-) SUR1 (3 μg) were transfected into COS7 cells with green fluorescent protein cDNA as a reporter gene by using lipofectamine and Opti-MEN 1 reagents (Life Technologies Inc., Rockville, MD) according to the manufacturer's instructions. After transfection, cells were cultured at 37°C with 95% air and 5% CO2 for 48–72 h before being subjected to electrophysiological recordings.
(§2) We recorded current passing through single channels in inside-out or cell-attached patch configurations. In cell-attached patches, both bath and pipette (extracellular) solutions were composed of the following: 140 mM KCl, 10 mM HEPES, 5.5 mM dextrose, and 1 mM EGTA. In inside-out patches, the bath (intracellular) solution contained 140 mM KCl, 1.2 mM MgCl2, 10 mM HEPES, 1.5 mM EGTA and 5.5 mM dextrose. The pipette (extracellular) solution was of the same composition as that used in cell-attached recordings. The pH of all solutions was adjusted to 7.4 with KOH. Osmolality was adjusted approximately to 300 mOsm/l by adding sucrose if necessary. We pulled patch micropipettes from borosilicate glass capillaries using a Flaming/Brown micropipette puller, model P-97 (Sutter, San Rafael, CA) and flame polished them with a microforge polisher (Narishige, Tokyo, Japan) prior to use. Their resistance ranged between 3 and 6 MΩ when filled with the internal solution, and placed into the recording solutions.
(§3) We recorded single channel currents at room temperature (20–25°C) using an Axon CNS Multiclamp 700B amplifier, digitized them using an analog-to-digital converter (Axon CNS DigiData 1440A; Axon Instruments, Foster, CA), and stored them into a PC. Sampling frequency of single-channel data was 5 KHz with a low-pass filter (1 KHz). We used pClamp version 10.2 software (Axon Instruments) for data acquisition and analysis. […] Channel open probability (Po) was determined from the ratios of the area under the peaks in the amplitude histograms fitted by a Gaussian distribution. We calculated channel activity as NPo (where N is the number of observed channels in the patch) from data samples of either 30 s (in inside-out recordings), or 60 s (in cell-attached recordings), in the steady state. […]

[2] = target: T2, SUR1-C717S/Kir6.2 channels (Rattus norvegicus, UniProt P70673+Q09429, C717S); assay: Inside-out patch recording of mutated channels expressed in COS7 cells; type: biochemical; conditions: DTT 5 mM; n = 7
T2 construct: A full-length Kir cDNA and a full-length SUR cDNA were subcloned into the mammalian expression vector; expressed in transfected cells; host or cells: COS7 cells, pcDNA3.1(-) vectors, GFP cDNA co-transfected as a separate reporter
Description: as §1, §2, §3

[3] = target: T3, KATP channels in large DRG neurons (Rattus norvegicus, UniProt P70673+Q09429); assay: Excised inside-out (cell-free) patch-clamp recording of KATP channel activity; type: biochemical
T3 construct: native KATP channels in large DRG neurons; endogenous in cells; host or cells: acutely dissociated large-diameter neurons from rat L4/L5 dorsal root ganglia (sham-operated or spinal nerve ligated animals)
Description: (§4) We harvested control (L4 and L5) or axotomized (L5) ganglia, from control (SS) or hyperalgesic rats (SNL) respectively, between the 17th and 28th postoperative days. We sacrificed animals by decapitation under deep isoflurane anesthesia, excised ganglia through a lumbar incision, and at the same time confirmed accuracy of initial surgery.
For patch-clamp recordings, we placed excised DRG into separate 35 mm Petri dishes containing cold, oxygenated, Hanks Balanced Salt Solution (Gibko, Invitrogen, Grand Islan, NY), and minced them with iris scissors. We dissociated ganglia enzymatically in a solution containing 0.25 ml 0.05% w:v liberase blendzyme 2 (Roche Diagnostics Corp., Indianapolis, IN) and 0.25 ml DMEM/F12 with glutaMAX (Dulbecco's modified Eagle's medium F12; Gibco, Invitrogen Corp., Carlsbad, CA) in an incubator at 37°C for 30 min. We then removed the supernatant after centrifugation and re-incubated cells at 37°C for another 30 min in 0.2 ml 0.0625% trypsin (Sigma, St. Louis, MO) and 0.0125% deoxyribonuclease 1 (150,000 U, Sigma, St. Louis, MO) in 0.25 ml DMEM. We then isolated cells by centrifugation (600 rpm for 5 min) after adding 0.25 ml trypsin inhibitor 0.1% w:v (Sigma St. Louis, MO), and re-suspended them in a culture medium consisting of 0.5 mM glutamine, 0.02 mg/ml gentamicin (Gibco, Invitrogen Corp., Carlsbad, CA), 100 ng/ml nerve growth factor 7S (Alomone Labs, Jerusalem, Israel), 2% (vol/vol) B-27 supplement (Gibco, Invitrogen Corp., Carlsbad, CA), and 98% (vol/vol) neural basal medium A (Gibco, Invitrogen Corp., Carlsbad, CA). Finally, we plated cells onto poly-l-lysine-coated 12-mm glass coverslips (Deutsche Spiegelglas; Carolina Biologic Supply, Burlington, NC), kept them in a humidified incubator at 37°C with 95% air and 5% CO2, and studied them within 3–8 h of dissociation.
We visualized plated neurons using an inverted Nikon Diaphot 300 microscope with Hoffman modulation optic system. We selected only large diameter neuronal somata (≥ 40 μm in diameter) because we have previously shown that only these develop KATP current alterations, as well as changes indicative of increased excitability after painful-like nerve injury by SNL [74]. Large neuronal somata, roughly correspond to large, myelinated Aβ fibers.
as §2
We recorded single channel currents at room temperature (20–25°C) using an Axon CNS Multiclamp 700B amplifier, digitized them using an analog-to-digital converter (Axon CNS DigiData 1440A; Axon Instruments, Foster, CA), and stored them into a PC. Sampling frequency of single-channel data was 5 KHz with a low-pass filter (1 KHz). We used pClamp version 10.2 software (Axon Instruments) for data acquisition and analysis. We applied a conventional 50% current amplitude threshold level criterion to determine open events. Channel open probability (Po) was determined from the ratios of the area under the peaks in the amplitude histograms fitted by a Gaussian distribution. […]

[4] = target: T3, KATP channels in large DRG neurons; assay: Cell-attached single-channel patch-clamp recording of KATP channel activity (NPo); type: cell-based; conditions: for NPo, DNP-induced channel opening: DNP 100 μM bath application, -60 mV; for NPo 10 min after SNAP following pretreatment with KT 5823: KT 5823 1 μM for 20 min; for NPo 10 min after SNAP following pretreatment with KT 5823 / NPo 10 min after SNAP following pretreatment with ODQ: then SNAP 100 μM; for baseline NPo after pretreatment with L-NAME: L-NAME 100 μM for 20 minutes; for NPo 10 min after SNAP following pretreatment with ODQ: ODQ 10 μM for 20 min
Description: as §4
For patch-clamp recordings, we placed excised DRG into separate 35 mm Petri dishes containing cold, oxygenated, Hanks Balanced Salt Solution (Gibko, Invitrogen, Grand Islan, NY), and minced them with iris scissors. We dissociated ganglia enzymatically in a solution containing 0.25 ml 0.05% w:v liberase blendzyme 2 (Roche Diagnostics Corp., Indianapolis, IN) and 0.25 ml DMEM/F12 with glutaMAX (Dulbecco's modified Eagle's medium F12; Gibco, Invitrogen Corp., Carlsbad, CA) in an incubator at 37°C for 30 min. […] Finally, we plated cells onto poly-l-lysine-coated 12-mm glass coverslips (Deutsche Spiegelglas; Carolina Biologic Supply, Burlington, NC), kept them in a humidified incubator at 37°C with 95% air and 5% CO2, and studied them within 3–8 h of dissociation.
We visualized plated neurons using an inverted Nikon Diaphot 300 microscope with Hoffman modulation optic system. […] Large neuronal somata, roughly correspond to large, myelinated Aβ fibers.
as §2
Sampling frequency of single-channel data was 5 KHz with a low-pass filter (1 KHz). […] We applied a conventional 50% current amplitude threshold level criterion to determine open events. Channel open probability (Po) was determined from the ratios of the area under the peaks in the amplitude histograms fitted by a Gaussian distribution. We calculated channel activity as NPo (where N is the number of observed channels in the patch) from data samples of either 30 s (in inside-out recordings), or 60 s (in cell-attached recordings), in the steady state. In inside-out recordings, NPo of the KATP channels was normalized to the baseline NPo value obtained before test drugs at bathing solution without ATP (indicating relative channel activity).

[5] = agent alone, vs. baseline/control

T3 sequence (Q09429 whole entry): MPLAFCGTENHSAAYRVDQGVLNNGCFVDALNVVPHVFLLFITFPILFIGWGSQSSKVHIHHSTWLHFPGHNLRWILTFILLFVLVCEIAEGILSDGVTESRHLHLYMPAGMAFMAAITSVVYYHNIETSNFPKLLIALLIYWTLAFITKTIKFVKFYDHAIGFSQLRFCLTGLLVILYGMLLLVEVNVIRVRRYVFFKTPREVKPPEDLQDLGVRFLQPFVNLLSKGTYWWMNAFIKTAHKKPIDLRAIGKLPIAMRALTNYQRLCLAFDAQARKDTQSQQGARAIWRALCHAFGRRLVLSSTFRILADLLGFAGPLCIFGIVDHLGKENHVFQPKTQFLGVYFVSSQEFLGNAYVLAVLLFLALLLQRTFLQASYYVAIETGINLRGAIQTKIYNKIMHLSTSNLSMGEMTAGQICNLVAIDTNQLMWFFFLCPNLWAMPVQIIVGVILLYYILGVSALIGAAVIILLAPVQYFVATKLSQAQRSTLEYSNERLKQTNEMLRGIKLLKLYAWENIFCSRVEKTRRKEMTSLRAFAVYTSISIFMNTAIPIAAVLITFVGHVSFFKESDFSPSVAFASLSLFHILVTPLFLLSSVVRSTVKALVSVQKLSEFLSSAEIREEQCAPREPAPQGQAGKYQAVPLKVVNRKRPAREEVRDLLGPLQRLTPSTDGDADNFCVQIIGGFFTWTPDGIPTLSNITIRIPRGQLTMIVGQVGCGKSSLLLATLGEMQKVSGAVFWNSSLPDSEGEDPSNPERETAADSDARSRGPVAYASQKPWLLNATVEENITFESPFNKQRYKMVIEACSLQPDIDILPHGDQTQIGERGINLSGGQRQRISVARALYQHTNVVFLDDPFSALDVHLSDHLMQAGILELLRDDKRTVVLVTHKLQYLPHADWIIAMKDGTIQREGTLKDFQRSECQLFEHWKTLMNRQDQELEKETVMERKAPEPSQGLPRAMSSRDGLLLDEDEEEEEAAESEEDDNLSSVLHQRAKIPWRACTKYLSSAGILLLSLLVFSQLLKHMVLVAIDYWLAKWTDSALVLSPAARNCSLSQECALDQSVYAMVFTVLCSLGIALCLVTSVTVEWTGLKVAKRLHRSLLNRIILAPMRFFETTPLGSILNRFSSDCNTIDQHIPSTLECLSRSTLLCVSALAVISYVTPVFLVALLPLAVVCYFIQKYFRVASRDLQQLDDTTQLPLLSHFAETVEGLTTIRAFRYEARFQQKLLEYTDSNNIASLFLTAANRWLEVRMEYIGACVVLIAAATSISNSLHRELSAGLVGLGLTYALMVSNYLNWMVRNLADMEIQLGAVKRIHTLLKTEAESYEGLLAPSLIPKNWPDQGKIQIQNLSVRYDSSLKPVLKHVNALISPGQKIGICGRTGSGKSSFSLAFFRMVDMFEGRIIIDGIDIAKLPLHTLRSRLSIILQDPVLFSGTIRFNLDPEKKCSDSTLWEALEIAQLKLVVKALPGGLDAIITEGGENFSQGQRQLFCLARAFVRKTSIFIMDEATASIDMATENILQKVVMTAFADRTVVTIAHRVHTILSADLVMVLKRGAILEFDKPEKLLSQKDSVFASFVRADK
T3 sequence (P70673 whole entry): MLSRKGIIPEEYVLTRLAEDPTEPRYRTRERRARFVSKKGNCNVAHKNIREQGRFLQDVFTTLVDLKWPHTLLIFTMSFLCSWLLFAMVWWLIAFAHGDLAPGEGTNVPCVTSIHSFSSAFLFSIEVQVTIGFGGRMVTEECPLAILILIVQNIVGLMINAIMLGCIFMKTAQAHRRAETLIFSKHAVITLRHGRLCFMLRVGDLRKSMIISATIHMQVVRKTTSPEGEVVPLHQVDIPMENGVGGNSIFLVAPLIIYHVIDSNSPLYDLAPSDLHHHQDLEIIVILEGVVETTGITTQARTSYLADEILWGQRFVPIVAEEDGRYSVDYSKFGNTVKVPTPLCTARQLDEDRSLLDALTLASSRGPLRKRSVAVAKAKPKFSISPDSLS
T1 sequence (Q09429 whole entry): as the sequence (Q09429 whole entry) above
T1 sequence (P70673 whole entry): as the sequence (P70673 whole entry) above
T2 sequence (Q09429 whole entry C717S): as the sequence (Q09429 whole entry) above, with C717S counted along it
T2 sequence (P70673 whole entry): as the sequence (P70673 whole entry) above

O[C@@H](CS)[C@@H](O)CS (racemic) [DTT, di-thiothreitol]
effect on SNAP-activated currents ([1]; DTT 5 mM after SNAP 1 mM): almost completely suppressed | effect on SNAP-induced channel activation [2]: reversed | effect on SNAP-induced KATP channel activation ([3]; SS neurons, DTT 5 mM after SNAP 100 μM, 1 mM [ATP]i, n = 7): completely reversed | direct effect on KATP channels in inside-out patches [3, 5]: no direct effect

Nc1nc2c(nc(Br)n2[C@@H]2O[C@@H]3COP(=O)([O-])O[C@H]3[C@H]2O)c(=O)[nH]1.[Na+] [8-Br-cGMP, 8-bromo-cGMP sodium salt]
time to steady-state activation after exposure ([4]; 8-Br-cGMP 100 μM): 2 to 3 min | effect when applied after SNAP-induced steady-state activation ([4]; 8-Br-cGMP at least 5 min after SNAP 100 μM, SS and SNL neurons, n = 5 each): additional further channel opening | NPo 5 min after application of 8-Br-cGMP ([4]; SNL neurons, 8-Br-cGMP 100 μM, n = 7): 0.17 ± 0.06 | NPo 5 min after application of 8-Br-cGMP ([4]; SS neurons, 8-Br-cGMP 100 μM, n = 8): 0.22 ± 0.08

O=[N+]([O-])c1ccc(O)c([N+](=O)[O-])c1 [DNP, 2,4-Dinitrophenol]
NPo, DNP-induced channel opening ([4]; SNL neurons, n = 8): 0.208 ± 0.16 | NPo, DNP-induced channel opening ([4]; SS neurons, n = 8): 0.442 ± 0.26 | direct effect on KATP channels in inside-out patches ([3]; DNP 100 μM, SS and SNL, vs. baseline): no direct effect

COC(=O)[C@@]1(OC)C[C@H]2O[C@]1(C)n1c3ccccc3c3c4c(c5c6ccccc6n2c5c31)C(=O)N(C)C4 [KT 5823]
effect of pretreatment on 8-Br-cGMP-induced KATP channel activation ([4]; KT 5823, SS and SNL neurons): significantly reduces | NPo 10 min after SNAP following pretreatment with KT 5823 ([4]; SNL neurons, n = 6): 0.26 ± 0.19 | NPo 10 min after SNAP following pretreatment with KT 5823 ([4]; SS neurons, n = 5): 0.14 ± 0.17 | direct effect on KATP channels in inside-out patches [3, 5]: neither ODQ nor KT 5823 had any direct effect

COC(=O)[C@@H](N)CCCNC(N)=N[N+](=O)[O-] [L-NAME, NG-nitro-L-arginine methyl ester]
baseline NPo after pretreatment with L-NAME ([4]; SNL neurons, n = 7): 0.06 ± 0.04 | baseline NPo after pretreatment with L-NAME ([4]; SS neurons, n = 7): 0.114 ± 0.06 | direct effect on KATP channels in inside-out patches [3, 5]: no direct effect

CCN1C(=O)C=CC1=O [NEM, N-ethylmaleimide]
effect on basal channel activity ([3]; NEM 5 mM, 1 mM [ATP]i, n = 6): significantly decreased | effect on the activating effect of SNAP on KATP channels ([3]; SS neurons, NEM 5 mM before SNAP 100 μM, 1 mM [ATP]i, n = 6): completely eliminated

O=c1onc2cnc3ccccc3n12 [ODQ, 1H-[1,2, 4] oxadiazolo [4,3-a] quinoxalin-1-one]
NPo 10 min after SNAP following pretreatment with ODQ ([4]; SNL neurons, n = 6): 0.27 ± 0.16 | NPo 10 min after SNAP following pretreatment with ODQ ([4]; SS neurons, n = 6): 0.25 ± 0.09 | direct effect on KATP channels in inside-out patches [3, 5]: neither ODQ nor KT 5823 had any direct effect

CCCOc1ccccc1-c1nc2nn[nH]c2c(=O)[nH]1 [zaprinast]
effect on KATP channel activity ([4]; zaprinast, control and SNL neurons, data not shown): no effect

nitric oxide [NO]
potency of direct activation of cloned channels relative to native channels (less potent) ([1]; cloned SUR1/Kir6.2 in COS7 cells vs. native channels in DRG neurons): approximately 3 fold
